Test results from patent US12006294B2, “Therapeutic compounds” (REGENTS OF THE UNIVERSITY OF MINNESOTA, priority 2017, dated 2024).
Entries after “also recorded” stand apart in the source; their conditions may differ. Like-named read-outs stand apart in the source and are kept apart here.

Assays:
[1] = tested on: CAD5 cells; format: cell-based
[2] = tested on: Hela Cells; experiment: Cellular ER stress model (tunicamycin, WST-8 cell viability); conditions: for AntiERStress (% Cell Survival): HeLa cells, tunicamycin 48 hours, WST-8; for viability at 2.5 µM: Homo sapiens, HeLa, 48 h
[3] = tested on: mice; experiment: Acetaminophen hepatotoxicity (ALT, TBARS, survival); conditions: for elevated ALT levels after acetaminophen overdose: delayed administration post APAP administration; for hepatotoxicity of acetaminophen (ALT levels): pretreatment (30 min) before acetaminophen
[4] = tested on: mice; experiment: Tail flick assay of drug combinations (morphine or acetaminophen + GA and/or analogs); conditions: acetaminophen:BC1-45-1 ratios 500:1 to 1000:1; acetate
[5] = tested on: C57BL/6J mice; experiment: MOG-induced experimental autoimmune encephalomyelitis (EAE); format: in vivo; conditions: daily treatment starting on PID 10, preliminary results, FIG. 2

Row | Compound | 1/Elispot [1] | AntiPrion (Number of Cells × 10^4) [1] | EliSpot (Spots/10000 Cells) [1] [Spots/10000 Cells] | Elispot (vs PC) [1] | AntiERStress (% Cell Survival) [2] [% Cell Survival] | other results
1 | N=C(N)N/N=C\c1c(Cl)cccc1Cl [BC1-55-1, (Z)-2-(2,6-dichlorobenzylidene)hydrazinecarboximidamide acetate] | 0.59 | 3 × 10^4 | 2200 | 1.69 | 64.33 | viability at 2.5 µM ([2]; read-out: % Cell Survival Cmpd(2.5 μM) + Tuni, Hela cells, compound 2.5 μM + tunicamycin, WST-8 viability 48 hours after tunicamycin treatment): 22.1%; viability at 2.5 µM ([2]; read-out: Compounds ERS (vs Tn), ERS activity vs Tuni = % cell survival (compound)/% cell survival (tunicamycin), compound 2.5 μM): 96%; lipid peroxidation products (TBARS assay) ([3]; acetaminophen overdose, FIG. 7, acetate): can reduce the lipid peroxidation products; also recorded: limited the elevated lipid peroxidation byproducts; survival rate ([3]; delayed administration post APAP): 100%; elevated ALT levels after acetaminophen overdose ([3]; acetate): reduces elevated levels of ALT; survival rate ([3]; pretreated animals, acetaminophen overdose): 100%; hepatotoxicity of acetaminophen (ALT levels) ([3]; acetate): can limit the hepatotoxicity of acetaminophen; also recorded: limited the hepatotoxicity of acetaminophen
2 | N=C(N)N/N=C/c1c(Cl)cccc1Cl [BC1-45-1, guanabenz, acetate] | – | – | – | – | – | analgesic synergy with acetaminophen in tail flick assay [4]: exhibited synergy in the analgesic activity; also recorded: provided synergy at all the time points tested; survival rate ([3]; all treatment groups (pretreatment and delayed 0.5-8 h post acetaminophen)): 100%; elevated ALT levels after acetaminophen overdose ([3]; acetate): reduces elevated levels of ALT; also recorded: limited the hepatotoxicity of acetaminophen; hepatotoxicity of acetaminophen (ALT levels) ([3]; acetate): can limit the hepatotoxicity of acetaminophen; also recorded: limited the hepatotoxicity of acetaminophen
3 | CC(=O)N[C@@H](CS)C(=O)O [N-acetyl cysteine] | – | – | – | – | – | elevated ALT levels after acetaminophen overdose [3]: less effective in limiting elevated ALT levels; hepatotoxicity of acetaminophen (ALT levels) [3]: less effective in limiting the hepatotoxicity of acetaminophen; animals died before completion of the study ([3]; pretreatment, acetaminophen overdose): Twenty-five; animals died before completion of the study ([3]; treated four hours after acetaminophen overdose): Eighty-eight
4 | NC(N)=N/N=C/c1ccccc1Cl [Sephin 1, reference compound] | 1.63 | 32 × 10^4 | 800 | 0.62 | 87.19 | ERS (vs Tn) ([2]; % cell survival (compound)/% cell survival (tunicamycin)): 1.80; EAE disease severity (clinical severity score) [5]: markedly attended the EAE disease severity; EAE disease severity (clinical severity score) ([5]; listed as sephin 1): attends the EAE disease severity
5 | Cl.NC(=O)N/N=C/c1c(Cl)cccc1Cl [BC1-262-1, (E)-2-(2,6-dichlorobenzylidene)hydrazinecarboxamide hydrochloride] | 1.86 | 53 × 10^4 | 700 | 0.54 | 64.7 | –
6 | COc1cccc(Cl)c1/C=N/NC(=N)N [BC2-25-1, (E)-2-(2-chloro-6-methoxybenzylidene)hydrazinecarboximidamide acetate] | 1.08 | 20 × 10^4 | 1200 | 0.92 | 51.7 | –
7 | N=C(N)N/N=C/c1ccc(F)cc1Cl [BC2-17-1, (E)-2-(2-chloro-4-fluorobenzylidene)hydrazinecarboximidamide acetate] | 1.00 | 16 × 10^4 | 1300 | 1.00 | 104.8795 | –
